Data: BindingDB's records for doi:10.1021/jm9600095 (Institut De Chimie Des Substances Naturelles Cnrs, 1997)

Assay: Reverse transcriptase activity was measured in the culture supernatant, concentration that reduces by 50% the HIV produced in the supernatant.

Row | EC50 | SMILES
1 | 13 µM | Cc1cn(C2CC(N=[N+]=[N-])C(CO)O2)c(=O)n(CC2COC(C)(C)O2)c1=O (stereo not given) [1-(4-Azido-5-hydroxymethyl-tetrahydro-furan-2-yl)-3-(2,2-dimethyl-[1,3]dioxolan-4-ylmethyl)-5-methyl-1H-pyrimidine-2,4-dione]
2 | 14 µM | CCOC(=O)Cn1c(=O)c(C)cn(C2CC(N=[N+]=[N-])C(CO)O2)c1=O (stereo not given) [[3-(4-Azido-5-hydroxymethyl-tetrahydro-furan-2-yl)-5-methyl-2,6-dioxo-3,6-dihydro-2H-pyrimidin-1-yl]-acetic acid ethyl ester]
3 | 1.2 µM | Cc1cn(C2CC(N=[N+]=[N-])C(CO)O2)c(=O)n(CCCCCCO)c1=O (stereo not given) [1-(4-Azido-5-hydroxymethyl-tetrahydro-furan-2-yl)-3-(6-hydroxy-hexyl)-5-methyl-1H-pyrimidine-2,4-dione]
4 | 4.7 µM | CCOP(=O)(Cn1c(=O)c(C)cn(C2CC(N=[N+]=[N-])C(CO)O2)c1=O)OCC (stereo not given) [[3-(4-Azido-5-hydroxymethyl-tetrahydro-furan-2-yl)-5-methyl-2,6-dioxo-3,6-dihydro-2H-pyrimidin-1-ylmethyl]-phosphonic acid diethyl ester]
5 | 1.5 µM | Cc1cn(C2CC(N=[N+]=[N-])C(CO)O2)c(=O)n(CCN=[N+]=[N-])c1=O (stereo not given) [3-(2-Azido-ethyl)-1-(4-azido-5-hydroxymethyl-tetrahydro-furan-2-yl)-5-methyl-1H-pyrimidine-2,4-dione]
6 | 1.4 µM | Cc1cn(C2CC(N=[N+]=[N-])C(CO)O2)c(=O)n(CCn2c(=O)c(C)cn(C3CC(N=[N+]=[N-])C(CO)O3)c2=O)c1=O (stereo not given) [1-(4-azido-5-hydroxymethyltetrahydro-2-furanyl)-3-{2-[1-(4-azido-5-hydroxymethyltetrahydro-2-furanyl)-5-methyl-2,4-dioxo-1,2,3,4-tetrahydro-3-pyrimidinyl]ethyl}-5-methyl-1,2,3,4-tetrahydro-2,4-pyrimidinedione]
7 | 1.5 µM | CCOC(Cn1c(=O)c(C)cn(C2CC(N=[N+]=[N-])C(CO)O2)c1=O)OCC (stereo not given) [1-(4-Azido-5-hydroxymethyl-tetrahydro-furan-2-yl)-3-(2,2-diethoxy-ethyl)-5-methyl-1H-pyrimidine-2,4-dione]
8 | 140 µM | COCCOCn1c(=O)c(C)cn(C2CC(N=[N+]=[N-])C(CO)O2)c1=O (stereo not given) [1-(4-Azido-5-hydroxymethyl-tetrahydro-furan-2-yl)-3-(2-methoxy-ethoxymethyl)-5-methyl-1H-pyrimidine-2,4-dione]
9 | 65 µM | C=CCn1c(=O)c(C)cn(C2CC(N=[N+]=[N-])C(CO)O2)c1=O (stereo not given) [3-Allyl-1-(4-azido-5-hydroxymethyl-tetrahydro-furan-2-yl)-5-methyl-1H-pyrimidine-2,4-dione]
10 | > 29 µM | COc1nc(=O)n(CCn2c(=O)c(C)cn(C3CC(N=[N+]=[N-])C(CO)O3)c2=O)cc1C (stereo not given) [1-(4-Azido-5-hydroxymethyl-tetrahydro-furan-2-yl)-3-[2-(4-methoxy-5-methyl-2-oxo-2H-pyrimidin-1-yl)-ethyl]-5-methyl-1H-pyrimidine-2,4-dione]
11 | 0.12 µM | Cc1cn(C2CC(N=[N+]=[N-])C(CO)O2)c(=O)n(CCCO)c1=O (stereo not given) [1-(4-Azido-5-hydroxymethyl-tetrahydro-furan-2-yl)-3-(3-hydroxy-propyl)-5-methyl-1H-pyrimidine-2,4-dione]
12 | 0.09 µM | Cc1cn(C2CC(N=[N+]=[N-])C(CO)O2)c(=O)n(CCO)c1=O (stereo not given) [1-(4-Azido-5-hydroxymethyl-tetrahydro-furan-2-yl)-3-(2-hydroxy-ethyl)-5-methyl-1H-pyrimidine-2,4-dione]
13 | 0.5 µM | Cc1cn(C2CC(N=[N+]=[N-])C(CO)O2)c(=O)n(N)c1=O (stereo not given) [3-Amino-1-(4-azido-5-hydroxymethyl-tetrahydro-furan-2-yl)-5-methyl-1H-pyrimidine-2,4-dione]
14 | 0.1 µM | Cc1cn(C2CC(n3c(=O)c(C)cn(C4CC(N=[N+]=[N-])C(CO)O4)c3=O)C(CO)O2)c(=O)[nH]c1=O (stereo not given) [1-(4-Azido-5-hydroxymethyl-tetrahydro-furan-2-yl)-3-[2-hydroxymethyl-5-(5-methyl-2,4-dioxo-3,4-dihydro-2H-pyrimidin-1-yl)-tetrahydro-furan-3-yl]-5-methyl-1H-pyrimidine-2,4-dione]
15 | 1.3 µM | Cc1cn(C2CC(N=[N+]=[N-])C(CO)O2)c(=O)n(CC2CC(CO)=NO2)c1=O (stereo not given) [1-(4-Azido-5-hydroxymethyl-tetrahydro-furan-2-yl)-3-(3-hydroxymethyl-4,5-dihydro-isoxazol-5-ylmethyl)-5-methyl-1H-pyrimidine-2,4-dione]
